# Test results: patent US6613766B1, “Pentaaza-cyclopental[a]naphthalene derivatives as ligands for GABAa α5 receptors” (Merck Sharp & Dohme Ltd., priority 1998, dated 2003)
compound,measurement,value
"Cc1cc(-c2nnc3c4cccnc4c(OCc4ncnn4C)nn23)no1 [Example 4, 3-(5-Methylisoxazol-3-yl)-5-(2-methyl-1,2,4-triazol-3-ylmethyloxy)-1,2,3a,4,6-pentaaza-cyclopenta[a]naphthalene]",melting point,255 to 257 °C
